One assay has as its system Splenocytes. Nature of the assay: Recall response to MOG35-55 of splenocytes from melatonin-treated mice. Type of assay: in vivo. The method, then: Secreted cytokines were measured in tissue culture supernatants after 72-96 hs by enzyme-linked immunosorbent assay as previously described (Farez et al., 2009). […] The cells were pulsed with [3H]thymidine (1 μCi/well) for the final 24 h. The frequency of T cells producing IL-17 (eBioscience), IFN-γ (BioLegend) or IL-10 (BD Pharmingen) and Foxp3+ T cells (eBioscience) was assessed by flow cytometry. For CFSE-based proliferation assay, CD4+ T cells were labeled with 1 μM CFSE (carboxyfluorescein diacetate succinimidyl ester; Molecular Probes). Data were acquired on an […] (BD Biosciences) or MacsQuants (Miltenyi) and analyzed with FlowJo software (TreeStar). To further characterize the effects of melatonin on the encephalitogenic T-cell response, we analyzed the recall response to MOG35-55. […] Thus, melatonin arrests the encephalitogenic Th17 cell response.

In assay [1] the test system is CD4+ T cells. Nature of the assay: Co-incubation of sorted CD4+ T cells with treatment-switched dendritic cells. Type of assay: in vivo. Particulars: CD4+ T cells from melatonin-treated mice co-incubated with splenic DCs from control mice. The method, then:
To investigate if melatonin acts directly on T cells or whether it controls the T-cell response indirectly through its effects on antigen presenting cells, we co-incubated sorted CD4^+ T cells from melatonin-treated or control mice with treatment-switched dendritic cells (DCs).

Assay [2] concerns human CD4+ T cells activated under Tr1 polarizing conditions. Nature of the assay: In vitro human Tr1 differentiation. Type of assay: cell-based. Conditions: 500 ng/ml. From the text:
We then studied the effects of melatonin on human CD4^+ T cells. In addition, we also analyzed the effects of agomelatine, which activates melatonin-dependent signaling (Hickie and Rogers, 2011). Based on the effects of melatonin administration on T cells during EAE, we focused our studies on human Th17 and Tr1 cells. Melatonin and agomelatine reduced the production of IL-17, RORC and IL17A expression by human CD4^+ T cells activated under Th17 polarizing conditions (FIGS. 3a-c and FIG. 8), no effect was detected on the differentiation of human Th1 cells (FIGS. 3d-f). Concomitantly, melatonin and agomelatine increased IL10 expression.

Assay [3] relates to FoxP3+ iTregs, Th1 or Th2 cells. Nature of the assay: In vitro mouse differentiation of FoxP3+ iTregs, Th1 or Th2 cells. It counts as cell-based. Conditions: melatonin 2 ng/ml, 3 days. The method, then: Naive CD4+ T cells (CD4+CD44loCD62LhiCD25−) were from the spleen and lymph node of C57BL/6 wild-type, MTNR1A−, NFIL3−, REV-ERBα, C/EBPα-deficient or RORα-deficient mice using magnetic beads (CD4+ T cell isolation kit, Miltenyi Biotec). All experiments were started between 7 and 9 am. Cells were activated with plate-bound anti-CD3 (2 μg/ml; 14-0031-86; eBioscience) and anti-CD28 (2 μg/ml; 16-0281-86; eBioscience). Mouse IL-27 (30 ng/ml; 34-8271; Biolegend) was added for the generation of Tr1 cells. IL-6 (30 ng/ml; 406-ML-025; R&D Systems), TGF-β1 (15 ng/ml; 130-095-067; […] C17.8; Biolegend) and anti-IFN-γ (5 μg/ml; XMG1.2; Biolegend) were added for the generation of Th17 cells. Recombinant mouse IL-23 (30 ng/ml; 1887-ML-010; R&D Systems) was added at day 2. For some experiments IL-6 and […] (10 ng/ml; 401-ML-025; R&D Systems) or TGF-β1 and IL-21 (100 ng/ml; 594-ML-010; R&D Systems) were used in instead for Th17 cell differentiation. IL-12 (30 ng/ml; 419-ML-010; […] C17.8; Biolegend) were used for the generation of Th1 cells. IL-4 (30 ng/ml; 404-ML-010; R&D Systems) and anti-IFN-γ (5 μg/ml; XMG1.2; Biolegend) was added for the generation of Th2 cells. TGF-β1 (15 ng/ml; 130-095-067; Miltenyi Biotec) was used for the generation of Foxp3+ Tregs.

The subject of a further assay is Erk1/2. Nature of the assay: Signal transduction profiling using reverse protein arrays. It counts as cell-based, mouse. Particulars: T cells; MTNR1A-dependent.
The test system of assay [4] is nr1d1 reporter-transfected HEK293 cells. Nature of the assay: nr1d1 promoter luciferase reporter assay. Conditions: nr1d1 promoter controls luciferase expression. Type of assay: cell-based. From the text: The IL-10 promoter reporter and C-Maf and AhR vectors were previously described (Apetoh et al., 2010), vector expressing ROR-α were purchased from PlasmID at Harvard Medical School. Vectors coding for C/EBPα (44627) and Bmal reporter (46824) were purchased from Addgene. The retrovirus used for nfil3 overexpression in T cells was graciously provided by Laura Hooper (UT Southwestern, TX, USA). The retrovirus used for nr1d1 overexpression in T cells was graciously provided by Bart Staels (Institut Pasteur, Lille, France, […]). The nr1d1 promoter reporter was graciously provide by Vincent Laudent (Ecole Normale Supérieure, Lyon, France).
HEK293 cells were grown in DMEM supplemented with 10% FBS and were transfected with FuGENE HD transfection reagent and 2 μg of each plasmids according the manufacturer's instructions (Roche). Firefly and renilla luciferase activity was analyzed 48 h after transfection and 24 h after treatment with a Dual Luciferase Assay kit (Promega).

In assay [5] the test system is CD4+ T cells. In words: Th17 differentiation in vivo in RAG-1 deficient mice reconstituted with CD4+ T cells and immunized with MOG35-55 in CFA. Conditions: melatonin 5 mg/kg. The source says:
Sorted splenic CD4+ T cells from C57BL/6, MTNR1A-, REV-ERBα and NFIL3-deficient mice were transferred i.p. (10×10^6 cells per mouse) into RAG-1 deficient mice. Ten days after transfer, mice were checked for reconstitution of CD4+ T cells and immunized with MOG35-55 in CFA. Twenty days after immunization, T cells were isolated and stained for cytokines.

The text below walks through data of patent US10555919B2, “Melatonin in autoimmune disease” (The Brigham and Women's Hopsital, Inc., priority 2014, dated 2020).

Protocol for Erk1/2: Cells activated under polarizing conditions were treated with vehicle (DMSO 0.001%), melatonin (2-10 ng/mL), agomelatine (2-10 ng/mL) and CGP-52608 (2-10 ng/mL) during 72-96 hs and lysed. Lysates were transferred to 384-well polypropylene plates and were spotted onto Super Epoxi slides (Telechem) with a robotic microarrayer (Genetix) fitted with solid spotting pins.

For the compound `COc1ccc2[nH]cc(CCNC(C)=O)c2c1` [Melatonin, N-Acetyl-5-methoxytryptamine], the “proliferative response to MOG35-55” value in the assay with Splenocytes is given as “diminished”. Further, in the assay on Splenocytes (recall to MOG35-55), the IFN-γ production entry is “no significant effects”, the IL-10 production result is “increased” and the IL-17 production entry is reported as “reduced”. Besides, in the assay on CD4+ T cells [1], the IL-10 production result is reported as “increased”; the “proliferation and IL-17 secretion” value was “decreased”. The IL-10 production result in assay [2] is reported as “increased”. For the same compound, in assay [3], the “differentiation of FoxP3+ iTregs, Th1 or Th2 cells” value is listed as “no effects”. Further, in the assay with Erk1/2, the “activation of Erk1/2” value is on record as “increase”. For the same compound, in assay [4], the luciferase activity entry is listed as “decreased”. Also, the “Th17 cell differentiation in vivo” value with CD4+ T cells [5] (mice reconstituted with MTNR1A-, REV-ERBα or NFIL3-deficient T cells) is “increased”. For the same compound, the “Th17 cell differentiation in vivo” value with CD4+ T cells [5] (mice reconstituted with wild type CD4+ T cells) is listed as “suppression”.
